Active and inactive are the calls of the source. No cut-off for these calls is given here.
Experiments:
[1] = Cytotoxicity against human K562/A02 cells overexpressing ABCB1 assessed as decrease in cell survival rate incubated for 72 hrs by MTS assay; format: toxicity, cell-based
K562 [2] = assay: Antitumor activity against human K562 cells xenografted in BALB/c mouse assessed as tumor growth inhibition at 1 mg/kg, ip BW for 14 days; format: functional, organism-based; conditions: time 14.0 day
K562 [3] = assay: Antitumor activity against human K562 cells xenografted in BALB/c mouse assessed as tumor growth inhibition at 1 mg/kg, ip BW for 14 days in presence of verapamil; format: functional, organism-based; conditions: time 14.0 day
K562 [4] = assay: (§1) Antitumor activity against human K562 cells xenografted in BALB/c mouse assessed as tumor growth inhibition at 1 mg/kg, ip BW for 14 days in presence of N-(4-(3-((4-Phenyipiperazin-1-yl)methyl)imidazo[l,2-a]pyridin-2-yl)phenyl)-2-(4-(4-(trifluoromethoxy)phenyl)piperazin-1-yl)acetamide; format: functional, organism-based; conditions: time 14.0 day
K562/A02 [5] = assay: as §1, with “K562/A02” for “K562”, “cells overexpressing ABCB1” for “cells”; format: functional, organism-based; conditions: time 14.0 day
K562/A02 [6] = assay: Antitumor activity against human K562/A02 cells overexpressing ABCB1 xenografted in BALB/c mouse assessed as tumor growth inhibition at 1 mg/kg, ip BW for 14 days; format: functional, organism-based; conditions: time 14.0 day
[7] = Toxicity in BALB/c mouse xenografted with human K562 cells assessed as body weight loss at 1 mg/kg, ip BW for 14 days; format: organism-based; conditions: in vivo, 336 h, time 14 day
[8] = Toxicity in BALB/c mouse xenografted with human K562 cells assessed as body weight loss at 1 mg/kg, ip BW for 14 days in presence of verapamil; format: organism-based; conditions: in vivo, 336 h, time 14 day
[9] = Toxicity in BALB/c mouse xenografted with human K562 cells assessed as body weight loss at 1 mg/kg, ip BW for 14 days in presence of N-(4-(3-((4-Phenyipiperazin-1-yl)methyl)imidazo[l,2-a]pyridin-2-yl)phenyl)-2-(4-(4-(trifluoromethoxy)phenyl)piperazin-1-yl)acetamide; format: organism-based; conditions: in vivo, 336 h, time 14 day
[10] = Toxicity in BALB/c mouse xenografted with human K562/A02 cells overexpressing ABCB1 assessed as body weight loss at 1 mg/kg, ip BW for 14 days; format: organism-based; conditions: in vivo, 336 h, time 14 day
[11] = Toxicity in BALB/c mouse xenografted with human K562/A02 cells overexpressing ABCB1 assessed as body weight loss at 1 mg/kg, ip BW for 14 days in presence of verapamil; format: organism-based; conditions: in vivo, 336 h, time 14 day
[12] = Toxicity in BALB/c mouse xenografted with human K562/A02 cells overexpressing ABCB1 assessed as body weight loss at 1 mg/kg, ip BW for 14 days in presence of N-(4-(3-((4-Phenyipiperazin-1-yl)methyl)imidazo[l,2-a]pyridin-2-yl)phenyl)-2-(4-(4-(trifluoromethoxy)phenyl)piperazin-1-yl)acetamide; format: organism-based; conditions: in vivo, 336 h, time 14 day
[13] = Cytotoxicity against human K562 cells assessed as decrease in cell survival rate incubated for 72 hrs by MTS assay; format: toxicity, cell-based
K562 [14] = assay: Reversal of ABCB1 mediated adriamycin resistance in human K562 assessed as decrease in survival rate at 1.25 to 5 uM preincubated for 1 hrs followed by adriamycin addition and measured after 72 hrs by MTS assay; format: functional, cell-based; conditions: dose 1.25-5 µM, time 73.0 hrs
K562/A02 [15] = assay: Reversal of ABCB1 mediated adriamycin resistance in human K562/A02 overexpressing ABCB1 assessed as decrease in survival rate at 1.25 to 5 uM preincubated for 1 hrs followed by adriamycin addition and measured after 72 hrs by MTS assay; format: functional, cell-based; conditions: dose 1.25-5 µM, time 73.0 hrs
K562/A02 [16] = assay: Reversal of ABCB1 mediated adriamycin resistance in human K562/A02 overexpressing ABCB1 assessed as decrease in survival rate at 5 uM preincubated for 1 hrs followed by adriamycin addition and measured after 72 hrs by MTS assay; format: functional
[17] = Cytotoxicity against human HEK293 cells assessed as reduction in cell viability incubated for 72 hrs by SRB assay; format: toxicity, cell-based
[18] = Cytotoxicity against human HEK293 cells expressing ABCG2 assessed as reduction in cell viability incubated for 72 hrs by SRB assay; format: toxicity, cell-based
HEK293 [19] = assay: Reversal of ABCG2 mediated mitoxantrone resistance in human HEK293 assessed as decrease in survival rate at 1.25 to 5 uM preincubated for 1 hrs followed by mitoxantrone addition and measured after 72 hrs by SRB assay; format: functional, cell-based; conditions: dose 1.25-5 µM, time 73.0 hrs
HEK293 [20] = assay: Reversal of ABCG2 mediated mitoxantrone resistance in human HEK293 overexpressing ABCG2 assessed as decrease in survival rate at 1.25 to 5 uM preincubated for 1 hrs followed by mitoxantrone addition and measured after 72 hrs by SRB assay; format: functional, cell-based; conditions: dose 1.25-5 µM, time 73.0 hrs
K562 [21] = assay: Cytotoxicity against human K562 cells assessed as decrease in cell survival rate at 5 uM incubated for 72 hrs by MTS assay; format: toxicity, cell-based; conditions: k562, 72 h
K562/A02 [22] = assay: Cytotoxicity against human K562/A02 cells overexpressing ABCB1 assessed as decrease in cell survival rate at 5 uM incubated for 72 hrs by MTS assay; format: toxicity, cell-based; conditions: k562/a02, 72 h
K562 [23] = assay: Reversal of ABCB1 mediated adriamycin resistance in human K562 cells assessed as reduction in survival rate at 1 uM preincubated for 1 hrs followed by adriamycin addition and measured after 72 hrs by MTS assay; format: functional, cell-based; conditions: time 73.0 hrs
K562 [24] = assay: Reversal of ABCB1 mediated adriamycin resistance in human K562 cells assessed as reduction in survival rate at 5 uM preincubated for 1 hrs followed by adriamycin addition and measured after 72 hrs by MTS assay; format: functional, cell-based; conditions: time 73.0 hrs
K562/A02 [25] = assay: Reversal of ABCB1 mediated adriamycin resistance in human K562/A02 cells overexpressing ABCB1 assessed as reduction in survival rate at 1 uM preincubated for 1 hrs followed by adriamycin addition and measured after 72 hrs by MTS assay; format: functional; conditions: time 73.0 hrs
K562/A02 [26] = assay: Reversal of ABCB1 mediated adriamycin resistance in human K562/A02 cells overexpressing ABCB1 assessed as reduction in survival rate at 5 uM preincubated for 1 hrs followed by adriamycin addition and measured after 72 hrs by MTS assay; format: functional; conditions: time 73.0 hrs
[27] = molecular target: ATP-dependent translocase ABCB1 (Homo sapiens, UniProt P08183); assay: Inhibition of ABCB1 (unknown origin) ATPase activity assessed as decrease in luminescence by firefly luciferase reporter assay
ATP-dependent translocase ABCB1, sequence (P08183 whole entry): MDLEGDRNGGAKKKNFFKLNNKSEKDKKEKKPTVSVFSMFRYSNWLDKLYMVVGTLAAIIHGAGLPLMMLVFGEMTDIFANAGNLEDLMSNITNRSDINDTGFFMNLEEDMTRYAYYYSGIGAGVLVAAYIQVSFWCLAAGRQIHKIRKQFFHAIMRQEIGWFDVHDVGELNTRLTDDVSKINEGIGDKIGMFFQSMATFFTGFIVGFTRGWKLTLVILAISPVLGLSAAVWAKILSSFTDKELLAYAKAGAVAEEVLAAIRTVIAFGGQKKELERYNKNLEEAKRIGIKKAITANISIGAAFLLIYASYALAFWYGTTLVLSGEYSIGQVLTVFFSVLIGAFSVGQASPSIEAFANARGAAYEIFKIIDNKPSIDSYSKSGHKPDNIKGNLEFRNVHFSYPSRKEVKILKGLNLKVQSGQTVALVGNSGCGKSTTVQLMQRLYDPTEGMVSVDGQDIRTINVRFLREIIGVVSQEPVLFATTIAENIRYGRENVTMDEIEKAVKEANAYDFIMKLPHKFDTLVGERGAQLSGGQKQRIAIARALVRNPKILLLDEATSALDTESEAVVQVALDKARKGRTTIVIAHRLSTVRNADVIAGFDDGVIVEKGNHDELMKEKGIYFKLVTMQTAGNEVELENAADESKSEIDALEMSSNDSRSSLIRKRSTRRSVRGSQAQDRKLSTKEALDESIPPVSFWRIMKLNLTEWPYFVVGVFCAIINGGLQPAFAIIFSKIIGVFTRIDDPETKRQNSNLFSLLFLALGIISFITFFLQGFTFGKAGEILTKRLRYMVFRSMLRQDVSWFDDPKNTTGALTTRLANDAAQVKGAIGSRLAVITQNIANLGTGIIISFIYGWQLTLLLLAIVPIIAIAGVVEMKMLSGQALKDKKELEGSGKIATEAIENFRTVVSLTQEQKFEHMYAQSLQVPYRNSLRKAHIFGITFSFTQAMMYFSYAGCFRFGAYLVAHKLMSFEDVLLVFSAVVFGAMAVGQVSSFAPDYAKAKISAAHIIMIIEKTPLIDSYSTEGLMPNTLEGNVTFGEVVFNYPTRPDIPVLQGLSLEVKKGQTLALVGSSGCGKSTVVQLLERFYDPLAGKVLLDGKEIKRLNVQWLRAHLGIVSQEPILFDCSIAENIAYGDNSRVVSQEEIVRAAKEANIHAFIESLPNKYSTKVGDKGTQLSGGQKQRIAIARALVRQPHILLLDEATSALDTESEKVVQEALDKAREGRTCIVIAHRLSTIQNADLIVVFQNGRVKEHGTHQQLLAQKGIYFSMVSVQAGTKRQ

[28] = molecular target: T1, Broad substrate specificity ATP-binding cassette transporter ABCG2 (Homo sapiens, UniProt Q9UNQ0); assay: Inhibition of ABCG2 (unknown origin) ATPase activity assessed as decrease in luminescence by firefly luciferase reporter assay
T1 sequence (Q9UNQ0 whole entry): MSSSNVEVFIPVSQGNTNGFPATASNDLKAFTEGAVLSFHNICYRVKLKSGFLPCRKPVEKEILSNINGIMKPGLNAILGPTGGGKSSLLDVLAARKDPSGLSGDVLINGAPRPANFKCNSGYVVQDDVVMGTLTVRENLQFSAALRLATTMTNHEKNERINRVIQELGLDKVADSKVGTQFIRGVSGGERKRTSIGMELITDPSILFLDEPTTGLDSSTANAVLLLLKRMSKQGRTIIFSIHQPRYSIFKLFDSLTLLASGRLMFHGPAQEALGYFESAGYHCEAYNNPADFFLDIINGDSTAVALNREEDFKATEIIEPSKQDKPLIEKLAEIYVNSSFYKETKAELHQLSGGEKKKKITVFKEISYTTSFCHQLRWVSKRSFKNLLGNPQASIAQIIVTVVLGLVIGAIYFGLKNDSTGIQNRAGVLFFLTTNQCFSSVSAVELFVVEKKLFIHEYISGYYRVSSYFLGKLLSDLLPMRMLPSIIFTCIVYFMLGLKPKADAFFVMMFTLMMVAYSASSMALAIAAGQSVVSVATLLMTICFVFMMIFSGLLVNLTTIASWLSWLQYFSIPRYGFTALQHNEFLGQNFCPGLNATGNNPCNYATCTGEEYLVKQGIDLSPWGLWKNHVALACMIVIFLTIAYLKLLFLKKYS

Compound | IC50 at 72 h [1] [µM] | IC50 at 72 h [17] [µM] | IC50 at 72 h [18] [µM] | Activity (K562 [21]) | Activity (K562/A02 [22]) | Activity (K562 [23]) | Activity (K562 [24]) | Activity (K562/A02 [25]) | Activity (K562/A02 [26]) | also measured
COc1cccc2c1C(=O)c1c(O)c3c(c(O)c1C2=O)C[C@@](O)(C(=O)CO)C[C@@H]3O[C@H]1C[C@H](N)[C@H](O)[C@H](C)O1.Cl [DOXORUBICIN HYDROCHLORIDE] | 58.6 | – | – | – | – | – | – | – | – | Activity (K562 [2]): Active; Activity (K562 [3]): inactive; Activity (K562 [4]): inactive; Activity (K562/A02 [5]): Active; Activity (K562/A02 [6]): inactive; Activity [7]: Toxic; Activity [8]: Non-Toxic; Activity [9]: Non-Toxic; Activity [10]: Non-Toxic; Activity [11]: Non-Toxic; Activity [12]: Non-Toxic
C=CCN(CC=C)CC(=O)Nc1ccc(-c2nc3ccccn3c2CN2CCN(c3ccccc3)CC2)cc1 | > 100 | 11.8 | 18.5 | – | – | – | – | – | – | IC50 at 72 h [13]: > 100 µM; Activity (K562 [14]): inactive; Activity (K562/A02 [15]): Active; Activity (K562/A02 [16]): <30%; Activity (HEK293 [19]): inactive; Activity (HEK293 [20]): Active
COc1cc2c(cc1OC)CN(CC(=O)Nc1ccc(-c3nc4ccccn4c3CO)cc1)CC2 | – | – | – | Non-Toxic | Non-Toxic | inactive | inactive | inactive | inactive | –
COc1ccc(COCc2c(-c3ccc(NC(=O)CN4CCc5cc(OC)c(OC)cc5C4)cc3)nc3ccccn23)cc1 | – | – | – | Non-Toxic | Non-Toxic | inactive | inactive | Active | Active | –
COc1cc2c(cc1OC)CN(CC(=O)Nc1ccc(-c3nc4ccccn4c3CN3CCCCC3)cc1)CC2 | – | – | – | Non-Toxic | Non-Toxic | Active | Active | Active | Active | –
SODIUM VANADATE | – | – | – | – | – | – | – | – | – | inhibition (INH) [27]: Active; inhibition (INH) [28]: Active
CCN(CC)Cc1c(-c2ccc(NC(=O)CN3CCc4cc(OC)c(OC)cc4C3)cc2)nc2ccccn12 | – | – | – | Non-Toxic | Non-Toxic | inactive | inactive | Active | Active | –
C=CCN(CC=C)CC(=O)Nc1ccc(-c2nc3ccccn3c2CN2CCc3cc(OC)c(OC)cc3C2)cc1 | 65.2 | 37.6 | 11.5 | – | – | – | – | – | – | IC50 at 72 h [13]: 45.3 µM; Activity (K562 [14]): inactive; Activity (K562/A02 [15]): Active; Activity (K562/A02 [16]): <30%; Activity (HEK293 [19]): inactive; Activity (HEK293 [20]): Active
O=C1c2c(O)ccc(O)c2C(=O)c2c(NCCNCCO)ccc(NCCNCCO)c21 [MITOXANTRONE] | – | 0.04 | 1.72 | – | – | – | – | – | – | –

— ChEMBL document CHEMBL5380807, “Imidazo[1,2-a]Pyridine Derivatives as Novel Dual-Target Inhibitors of ABCB1 and ABCG2 for Reversing Multidrug Resistance” (J Med Chem, 2023)
